pEC50: −log10 of the molar value. Activity calls are given as the source filed them. The rule behind the calls is not given here.
Legend:
[1] = Selectivity index, ratio of CC50 for cytotoxicity against human Huh7.5.1 cells to EC50 for antiviral activity against HCV infected in human Huh7.5.1 cells; format: toxicity, cell-based
Hepatitis C virus [2] = assay: Antiviral activity against HCV infected in human Huh7.5 cells incubated for 72 hrs by in-cell western assay; format: functional, organism-based, Hepacivirus hominis; conditions: Huh7.5, 72 h
[3] = Cytotoxicity against human Huh7.5 cells assessed as reduction in cell viability incubated for 96 hrs by MTT assay; format: toxicity, cell-based, Huh-7.5; conditions: Huh7.5 cells
Hepatitis C virus [4] = assay: Antiviral activity against HCV infected in human Huh7.5 cells assessed as reduction in HCV core protein expression pre-infected with virus for 2 hrs followed by compound addition and measured after 72 hrs by Western blotting analysis; format: functional, organism-based; conditions: Hepacivirus hominis
Hepatitis C virus [5] = assay: Antiviral activity against HCV infected in human Huh7.5 cells assessed as reduction in viral RNA level pre-infected with virus for 2 hrs followed by compound addition and measured after 72 hrs by RT-qPCR analysis; format: functional, organism-based; conditions: Hepacivirus hominis
Hepatitis C virus [6] = assay: Antiviral activity against HCV infected in human Huh7.5 cells carrying HCV subgenomic replicons assessed as inhibition of viral replication at 1.4 uM; format: functional, organism-based; conditions: Hepacivirus hominis
Hepatitis C virus [7] = assay: Antiviral activity against HCV infected in human Huh7.5 cells assessed as reduction in viral RNA level preincubated for 2 hrs prior to viral infection and measured after 72 hrs by RT-qPCR analysis; format: functional, organism-based; conditions: Hepacivirus hominis, time 74.0 hrs
Hepatitis C virus [8] = assay: Antiviral activity against HCV infected in human Huh7.5 cells assessed as reduction in HCV core protein expression at 6.4 nM incubated for 72 hrs by in-cell western assay; format: functional, organism-based; conditions: Hepacivirus hominis
Hepatitis C virus [9] = assay: Antiviral activity against HCV infected in human Huh7.5 cells assessed as reduction in viral RNA level measured after 72 hrs by RT-qPCR analysis; format: functional, organism-based; conditions: Hepacivirus hominis
[10] = target: Histamine H1 receptor (Homo sapiens) (UniProt P35367); assay: Antagonist activity against H1 receptor (unknown origin) expressed in HEK cells at 1 uM relative to control; format: functional, cell-based
Chain of Histamine H1 receptor (Homo sapiens) (P35367 whole entry): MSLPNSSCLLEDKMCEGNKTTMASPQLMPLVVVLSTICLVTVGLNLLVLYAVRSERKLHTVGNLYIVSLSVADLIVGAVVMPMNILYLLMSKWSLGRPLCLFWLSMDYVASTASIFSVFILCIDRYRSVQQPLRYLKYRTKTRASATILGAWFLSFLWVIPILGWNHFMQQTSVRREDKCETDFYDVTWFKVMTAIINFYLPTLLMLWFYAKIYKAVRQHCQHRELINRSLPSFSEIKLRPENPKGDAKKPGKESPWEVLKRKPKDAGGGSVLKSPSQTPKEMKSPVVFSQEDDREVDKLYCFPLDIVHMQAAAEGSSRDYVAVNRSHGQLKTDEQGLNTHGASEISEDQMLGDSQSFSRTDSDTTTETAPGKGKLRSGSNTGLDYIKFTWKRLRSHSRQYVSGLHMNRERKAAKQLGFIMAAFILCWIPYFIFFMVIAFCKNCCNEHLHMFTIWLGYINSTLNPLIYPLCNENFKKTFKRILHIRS

[11] = Selectivity index, ratio of CC50 for cytotoxicity against human Huh7.5 cells infected with HCVcc to EC50 for antiviral activity against HCVcc infected in human Huh7.5 cells; format: toxicity, cell-based; conditions: read-out: Ratio CC50/EC50
Hepatitis C virus [12] = assay: Antiviral activity against HCV infected in human Huh7.5 cells assessed as reduction in HCV core protein expression measured after 72 hrs by Western blotting analysis; format: functional, organism-based; conditions: Hepacivirus hominis
Hepatitis C virus [13] = assay: Antiviral activity against HCV infected in human Huh7.5 cells assessed as reduction in HCV core protein expression preincubated for 2 hrs followed by viral infection and measured after 72 hrs by Western blotting analysis; format: functional, organism-based; conditions: Hepacivirus hominis, time 74.0 hrs
[14] = Cytotoxicity against human Huh7.5 cells carrying HCV subgenomic replicons assessed as reduction in cell viability incubated for 96 hrs by MTT assay; format: toxicity, cell-based, Huh-7.5
[15] = Cytotoxicity against human Huh7.5 cells infected with HCVcc assessed as reduction in cell viability incubated for 96 hrs by MTT assay; format: toxicity, cell-based, Huh-7.5
Hepacivirus hominis = assay: Binding affinity to HCV E1 protein at 12.5 to 200 uM by SPR analysis; conditions: dose 12.5-200 µM
Hepatitis C virus [16] = assay: Antiviral activity against HCV infected in human Huh7.5 cells carrying HCV subgenomic replicons assessed as inhibition of viral replication; format: functional, organism-based, Hepacivirus hominis
Hepatitis C virus [17] = assay: Antiviral activity against HCVcc infected in human Huh7.5 cells assessed as inhibition of viral replication; format: functional, organism-based, Hepacivirus hominis

SMILES	selectivity ratio ([1]; read-out: Ratio CC50/EC50)	pEC50 (Hepatitis C virus [2])	CC50 at 96 h [3]	also measured
CN1CCCN(c2ccc(C(F)(F)F)c(CN3CCN(c4ccc(Cl)cc4)CC3)c2)CC1	855	8.52	2.56 µM	
CC(c1ccccc1)N1CCN(Cc2cc(N(C)CCN(C)C)ccc2C#N)CC1 (centres undefined)	43	5.99	44.1 µM	
CN(C)CCN(C)c1ccc(C#N)c(CN2CCN(C(c3ccccc3)c3ccc(Cl)cc3)CC2)c1 (centres undefined)	1410	8.40	5.66 µM	Activity (Hepatitis C virus [4]): Active; Activity (Hepatitis C virus [5]): Active; Activity (Hepatitis C virus [6]): inactive; Activity (Hepatitis C virus [7]): inactive; Activity (Hepatitis C virus [8]): Active; Activity (Hepatitis C virus [9]): inactive; Activity [10]: inactive; selectivity ratio [11]: 649; Activity (Hepatitis C virus [12]): Active; Activity (Hepatitis C virus [13]): inactive
CN(C)CCN(C)c1ccc(C#N)c(CN2CCN([C@H](c3ccccc3)c3ccc(Cl)cc3)CC2)c1	823	8.00	8.23 µM	
CC(C)OC(=O)[C@H](C)N[P@](=O)(OC[C@H]1O[C@@H](n2ccc(=O)[nH]c2=O)[C@](C)(F)[C@@H]1O)Oc1ccccc1 [SOFOSBUVIR]	> 2440	7.09	> 200 µM	CC50 at 96 h [14]: 121 µM; selectivity ratio ([1]; read-out: Ratio): > 3280; CC50 at 96 h [15]: 171 µM; Activity (Hepacivirus hominis): inactive; pEC50 (Hepatitis C virus [16]): 6.74; Activity (Hepatitis C virus [8]): inactive; selectivity ratio [11]: 1330; pEC50 (Hepatitis C virus [17]): 6.89
CN(C)CCN(C)c1ccc(C(F)(F)F)c(CN2CCN(C(c3ccccc3)c3ccc(Cl)cc3)CC2)c1 (centres undefined)	26	6.57	6.96 µM	
CN1CCCN(c2ccc(C#N)c(CN3CCN(c4ccc(Cl)cc4)CC3)c2)CC1	87	6.96	9.59 µM	
CN(C)CCN(C)c1ccc(C#N)c(CN2CCN(C(c3ccc(F)cc3)c3ccc(F)cc3)CC2)c1	976	8.10	7.81 µM	Activity (Hepacivirus hominis): Active
CN1CCCN(c2ccc(C#N)c(CN3CCN([C@@H](c4ccccc4)c4ccc(Cl)cc4)CC3)c2)CC1	> 364	7.26	> 20 µM	
N#Cc1ccc(NCCCn2ccnc2)cc1CN1CCN(C(c2ccccc2)c2ccc(Cl)cc2)CC1 (centres undefined)	24	6.66	5.38 µM	
COCCOc1ccc(C#N)c(CN2CCN(C(c3ccc(F)cc3)c3ccc(F)cc3)CC2)c1		< 4.70	6.45 µM	
COCCOc1ccc(C#N)c(CN2CCN(c3ccc(C(F)(F)F)cc3)CC2)c1		5.82	2.97 µM	
CN1CCN(C(c2ccccc2)c2ccc(Cl)cc2)CC1 (centres undefined) [CHLORCYCLIZINE]				CC50 at 96 h [14]: 30.2 µM; CC50 at 96 h [15]: 30.8 µM; pEC50 (Hepatitis C virus [16]): < 5.80; Activity (Hepatitis C virus [8]): inactive; inhibition ([10]; filed as antagonist): 99%; selectivity ratio [11]: 456; pEC50 (Hepatitis C virus [17]): 7.17
CNCCN(C)CCN(C)c1ccc(C#N)c(CN2CCN(C(c3ccccc3)c3ccc(Cl)cc3)CC2)c1 (centres undefined)	49	7.02	4.71 µM	
N#Cc1ccc(NCCCn2ccnc2)cc1CN1CCN(C(c2ccc(F)cc2)c2ccc(F)cc2)CC1	36	6.79	5.89 µM	
CN(C)CCN(C)c1ccc(C#N)c(CN2CCN(C(c3ccccc3)c3ccccc3)CC2)c1	> 444	7.35	> 20 µM	

SMILES	selectivity ratio ([1]; read-out: Ratio CC50/EC50)	pEC50 (Hepatitis C virus [2])	CC50 at 96 h [3]	also measured
CN1CCCN(c2ccc(C#N)c(CN3CCN(C(=O)c4ccc(Cl)cc4)CC3)c2)CC1		< 5.40	9.7 µM	
CN(C)CCN(C)CCN(C)c1ccc(C#N)c(CN2CCN(C(c3ccccc3)c3ccc(Cl)cc3)CC2)c1 (centres undefined)	87	7.14	6.34 µM	
CN(C)CCN(C)c1ccc(C#N)c(CN2CCN(c3ccc(C(F)(F)F)cc3)CC2)c1	1010	7.89	13.2 µM	
N#Cc1ccc(NCCCn2ccnc2)cc1CN1CCN(C(c2ccc(Cl)cc2)c2ccc(Cl)cc2)CC1	> 182	6.96	> 20 µM	
CN1CCCN(c2ccc(C(F)(F)F)c(CN3CCN(C(c4ccccc4)c4ccc(Cl)cc4)CC3)c2)CC1 (centres undefined)	15	7.08	1.29 µM	
CN(C)CCN(C)c1ccc(C#N)c(CN2CCN(C(=O)c3ccc(Cl)cc3)CC2)c1		4.91	10.1 µM	
CN(C)CCN(C)c1ccc(C#N)c(CN2CCN(C(c3ccc(Cl)cc3)c3ccc(Cl)cc3)CC2)c1		8.52	3.33 µM	
CN(C)CCN(C)c1ccc(C#N)c(CN2CCN([C@@H](c3ccccc3)c3ccc(Cl)cc3)CC2)c1	549	7.80	8.78 µM	
CN(C)CCN(C)c1ccc(C#N)c(CN2CCN(Cc3ccc(F)cc3)CC2)c1	14	5.45	52.7 µM	
CC(c1ccccc1)N1CCN(Cc2cc(N3CCCN(C)CC3)ccc2C#N)CC1 (centres undefined)	33	6.02	31.3 µM	
CN1CCCN(c2ccc(C#N)c(CN3CCN(C(=O)c4ccc(F)cc4)CC3)c2)CC1		< 5.40	13.8 µM	
CN1CCCN(c2ccc(C#N)c(CN3CCN(Cc4ccccc4)CC3)c2)CC1		4.68	> 100 µM	
N#Cc1ccc(NCCCn2ccnc2)cc1CN1CCN(C(c2ccccc2)c2ccccc2)CC1	> 82	6.61	> 20 µM	
CN(C)CCN(C)c1ccc(C#N)c(CN2CCN(Cc3ccc(Cl)cc3)CC2)c1	17	5.98	18.1 µM	
CN1CCCN(c2ccc(C(F)(F)F)c(CN3CCN(C(c4ccc(F)cc4)c4ccc(F)cc4)CC3)c2)CC1	206	8.15	1.45 µM	
